# Changes are numbered by the printed parent chain.
# Legend:
# Experiment in all cases: SPR, protein over lipid vesicles on L1 chip
# Assay type in all cases: binding
# [1] = molecular target: T1, sTIM-4 (Homo sapiens, UniProt Q96H15)
# T1 sequence (Q96H15 25-314 limits assumed): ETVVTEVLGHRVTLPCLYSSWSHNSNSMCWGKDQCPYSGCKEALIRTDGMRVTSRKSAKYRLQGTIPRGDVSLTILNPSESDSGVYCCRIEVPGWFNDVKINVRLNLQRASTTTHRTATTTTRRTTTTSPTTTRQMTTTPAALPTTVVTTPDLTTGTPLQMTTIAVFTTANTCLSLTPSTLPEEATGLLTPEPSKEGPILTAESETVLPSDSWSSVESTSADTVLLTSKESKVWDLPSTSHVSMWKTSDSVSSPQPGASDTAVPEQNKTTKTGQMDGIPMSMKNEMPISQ
# [2] = molecular target: T2, sTIM-1 (Homo sapiens, UniProt Q96D42)
# T2 sequence (Q96D42 21-295 limits assumed): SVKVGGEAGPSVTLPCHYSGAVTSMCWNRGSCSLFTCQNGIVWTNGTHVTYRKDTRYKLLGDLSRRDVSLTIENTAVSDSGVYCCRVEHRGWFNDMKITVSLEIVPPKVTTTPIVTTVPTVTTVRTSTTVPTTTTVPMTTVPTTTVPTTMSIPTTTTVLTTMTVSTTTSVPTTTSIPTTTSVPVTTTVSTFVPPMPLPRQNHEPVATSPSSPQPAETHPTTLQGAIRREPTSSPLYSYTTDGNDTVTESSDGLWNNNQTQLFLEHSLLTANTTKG
# [3] = molecular target: T3, sTIM-3 (Homo sapiens, UniProt Q8TDQ0, I117A/M118A)
# T3 sequence (Q8TDQ0 22-202 I117A/M118A limits assumed): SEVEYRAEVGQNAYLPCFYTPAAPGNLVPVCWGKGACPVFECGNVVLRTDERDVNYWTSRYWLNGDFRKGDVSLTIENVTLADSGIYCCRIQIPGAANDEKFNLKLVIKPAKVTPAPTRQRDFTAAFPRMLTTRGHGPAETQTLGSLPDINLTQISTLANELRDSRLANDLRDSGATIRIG
# [4] = molecular target: T4, sTIM-3 (Homo sapiens, UniProt Q8TDQ0, F61A)
# T4 sequence (Q8TDQ0 22-202 F61A limits assumed): T3 sequence (Q8TDQ0 22-202 I117A/M118A limits assumed) with F40A, A96I, A97M
# [5] = molecular target: T5, sTIM-3 (Homo sapiens, UniProt Q8TDQ0)
# T5 sequence (Q8TDQ0 22-202 limits assumed): T3 sequence (Q8TDQ0 22-202 I117A/M118A limits assumed) with A96I, A97M
smiles,measurement,setting,value
CCCCCCCC/C=C\CCCCCCCC(=O)OC[C@H](COP(=O)(O)OC[C@H](N)C(=O)O)OC(=O)CCCCCCC/C=C\CCCCCCCC [DOPS],Kd,[1],0.77 ± 0.32 µM
same,Kd,[2],0.35 ± 0.05 µM
same,Kd,[3],> 200 µM
same,Kd,[4],> 200 µM
same,Kd,[5],9.7 ± 4.2 µM
